According to the RepoRT retention time repository (doi:10.1021/acs.analchem.2c02893):

Test: RP, Thermo Scientific Acclaim RSLC 120 C18, 100 × 2.1 mm, 2.2 µm, 30 °C, 0.2 mL/min, estimated dead time 1.1 min; A: 90% water + 10% methanol + 0.01% formic acid + 5 mM ammonium formate, pH 3.61; B: methanol + 0.01% formic acid + 5 mM ammonium formate, pH 3.61; gradient (min/%B) 0/1 1/1 2/39 13/99.9 15/99.9 15.1/1 20.1/1
Conditions: stereoisomer not certain

| SMILES | LC retention time |
| --- | --- |
| COP(=S)(OC)Oc1cc(Cl)c(Cl)cc1Cl [Fenclofos.Ronnel] | 12.5 min |
| CC1Cc2ccccc2N1NC(=O)c1ccc(Cl)c(S(N)(=O)=O)c1 (centres undefined) [Indapamide] | 6.61 min |
| CCCOC(=O)c1ccc(O)cc1 [Propylparaben] | 8.36 min |
| CON=C(C(=O)NC1C(=O)N2C(C(=O)O)=C(CSC(=O)c3ccco3)CSC12)c1csc(N)n1 (centres undefined) [Ceftiofur] | 5.44 min |
| CC(C(=O)c1ccc2c(c1)OCO2)N(C)C (centres undefined) [MDDMA-bk] | 3.78 min |
| CN(CC1(C)CCCO1)S(=O)(=O)c1ccc(Cl)c(S(N)(=O)=O)c1 (centres undefined) [Mefruside] | 6.56 min |
| CC(C)NC(=O)N1CC(=O)N(c2cc(Cl)cc(Cl)c2)C1=O [Iprodione] | 10.5 min |
| COP(=O)(OC)OC(Br)C(Cl)(Cl)Br (centres undefined) [Naled] | 8.55 min |
| CNC(=O)Oc1cc(C)cc(C(C)C)c1 [Promecarb] | 9.51 min |
| CNc1nc(NC(C)C)nc(SC)n1 [Desmetryn] | 8.17 min |
| O=C(Nc1ccc(Cl)cc1C(O)c1ccccc1)c1ccncc1 (centres undefined) [Inabenfide] | 9.27 min |
| CCOC(=O)C(CCc1ccccc1)NC(C)C(=O)N1CC2(CC1C(=O)O)SCCS2 (centres undefined) [Spirapril] | 8.23 min |
| Cc1cc(Cl)ccc1N=CN(C)C [Chlordimeform] | 4.64 min |
| CNC(=O)Oc1cccc2c1OC(C)(C)C2 [Carbofuran] | 7.01 min |
| CC1CC(C)C(=O)C(C(O)CC2CC(=O)NC(=O)C2)C1 (centres undefined) [Cycloheximide] | 5.99 min |
| CCOP(=S)(OCC)SC1OCCOC1SP(=S)(OCC)OCC (centres undefined) [Dioxathion] | 12.1 min |
| Cc1cc(=O)n(-c2ccccc2)n1C [Phenazone] | 4.63 min |
| CC(=O)c1ccc2c(c1)N(CCCN(C)C)c1ccccc1S2 [Acepromazine] | 7.47 min |
| CNCCC(Oc1ccccc1C)c1ccccc1 (centres undefined) [Atomoxetine] | 7.63 min |
| CC(C)(C)NCC(O)c1cc(Cl)c(N)c(Cl)c1 (centres undefined) [Clenbuterol] | 4.76 min |
| COCCOCCOC [Diglyme] | 3.9 min |
| CCn1cc(C(=O)O)c(=O)c2cc(F)c(N3CCNCC3)cc21 [Norfloxacin] | 4.46 min |
| CC1(C)C(C(=O)c2cn(CC3CCOCC3)c3ccccc23)C1(C)C [A-834.735] | 11.4 min |

| SMILES | LC retention time |
| --- | --- |
| CC(=O)c1ccc(S(=O)(=O)NC(=O)NC2CCCCC2)cc1 [Acetohexamide] | 7.72 min |
| Nc1cn[nH]c(=O)c1Cl [Desphenyl chloridazon] | 2.32 min |
| CC(C)C1CCC(C(=O)NC(Cc2ccccc2)C(=O)O)CC1 (centres undefined) [Nateglinide] | 10.4 min |
| CCCC(C)(COC(N)=O)COC(N)=O [Meprobamate] | 5.94 min |
| CCc1cccc(C)c1N(C(=O)CCl)C(C)COC (centres undefined) [Metolachlor] | 10.3 min |
| CNC(C)Cc1cccs1 (centres undefined) [Methiopropamine] | 3.69 min |
| COc1ccc(C(CN)C2(O)CCCCC2)cc1 [Venlafaxine- D L-N N-Didesmethyl] | 6.34 min |
| OCCOCCN1CCN(C2=Nc3ccccc3Sc3ccccc32)CC1 [Quetiapine] | 7.26 min |
| CCC12CCCN3CCc4c(n(c5ccccc45)C(O)(C(=O)OC)C1)C32 (centres undefined) [Vincamine] | 5.04 min |
| CCN(CC)CC#CCOC(=O)C(O)(c1ccccc1)C1CCCCC1 (centres undefined) [Oxybutynin] | 8.92 min |
| Cln1nnc2ccccc21 [Benzotriazole-chloro] | 6.53 min |
| CCCCN(CCCC)CCCC [Tributylamine] | 5.28 min |
| CC(Cc1ccccc1)NCc1ccccc1Cl (centres undefined) [Clobenzorex] | 6.82 min |
| NS(=O)(=O)c1cc2c(cc1Cl)NC(CSCc1ccccc1)=NS2(=O)=O [Benzthiazide] | 6.81 min |
| Cc1cccc2sc3nncn3c12 [Tricyclazole] | 5.93 min |
| CC(=O)Oc1ccc2c(CCN(C(C)C)C(C)C)c[nH]c2c1 [4-AcO-DIPT] | 4.88 min |
| CCCCCn1cc(C(=O)c2cccc3ccccc23)c2ccccc21 [JWH-018] | 12.4 min |
| CCCN(CCC)c1c([N+](=O)[O-])cc(C(C)C)cc1[N+](=O)[O-] [Isopropalin] | 13.2 min |
| O=C(Nc1ccccc1-c1ccc(Cl)cc1)c1cccnc1Cl [Boscalid] | 9.4 min |
| COP(=S)(OC)Oc1ccc(S(N)(=O)=O)cc1 [Cythioate] | 6.19 min |
| COc1cc(NC(C)CCCN)c2ncccc2c1 (centres undefined) [Primaquine] | 6.82 min |
| CCN(CC)C(=O)C1(c2ccccc2)CC1CN (centres undefined) [Milnacipran] | 5.73 min |
| CNC(C)Cc1cccc(F)c1 (centres undefined) [Amphetamine-3-F-Methyl (3-F-methamphetamine)] | 4.39 min |

| SMILES | LC retention time |
| --- | --- |
| C#CC(C)OC(=O)Nc1cccc(Cl)c1 (centres undefined) [Chlorbufam] | 9.27 min |
| CC1CC2C3CC(F)C4=CC(=O)C=CC4(C)C3C(O)CC2(C)C1(O)C(=O)CO (centres undefined) [Paramethasone] | 8.69 min |
| OC(c1ccccc1)(c1ccccc1)C1CCCCN1 (centres undefined) [Pipradrol] | 5.78 min |
| CCC1OC(=O)C(C)C(OC2CC(C)(OC)C(O)C(C)O2)C(C)C(OC2OC(C)CC(N(C)C)C2O)C(C)(OC)CC(C)C(=O)C(C)C(O)C1(C)O (centres undefined) [Clarithromycin] | 9.18 min |
| CCCc1nc(C)c2c(=O)[nH]c(-c3cc(C(=O)CN4CCN(CC)CC4)ccc3OCC)nn12 [Vardenafil-Acetyl] | 7.16 min |
| CC(C)(C)c1ccc(CSc2cnn(C(C)(C)C)c(=O)c2Cl)cc1 [Pyridaben] | 13.4 min |
| CCCCCn1cc(C(=O)c2ccc(C)c3ccccc23)c2ccccc21 [JWH-122] | 12.9 min |
| CCNCC(O)c1cccc(O)c1 (centres undefined) [Etilefrine] | 2.66 min |
| C=CC=CCC1=C(C)C(OC(=O)C2C(C=C(C)C)C2(C)C)CC1=O (centres undefined) [Pyrethrin I] | 12.9 min |
| CCOc1nc2cccc(C(=O)O)c2n1Cc1ccc(-c2ccccc2-c2nn[nH]n2)cc1 [Candesartan] | 7.93 min |
| CC(N)Cc1ccc2ccoc2c1 (centres undefined) [Benzofuran-6-ylpropan-2-amine<U+00A0>(6-APB)] | 4.81 min |
| CSC(=O)c1c(C(F)F)nc(C(F)(F)F)c(C(=O)SC)c1CC(C)C [Dithiopyr] | 11.7 min |
| O=C1CN(O)C(c2ccccc2)=c2cc(Cl)ccc2=N1 [Demoxepam] | 7.14 min |
| CCCC1C(=O)N2C(N(C)C)=Nc3ccc(C)cc3N2C1=O (centres undefined) [Azapropazone] | 6.54 min |
| Cc1cccc(C)c1NC(=O)C1CCCCN1C (centres undefined) [Mepivacaine] | 4.66 min |
| C=CCN(CC=C)CCc1c[nH]c2ccc(OC)cc12 [MeO-DALT (5-)] | 4.89 min |
| NCCc1ccccc1 [Phenethylamine (2-)] | 3.57 min |
| COC(=O)c1cc(Oc2ccc(Cl)cc2Cl)ccc1[N+](=O)[O-] [Bifenox] | 11.5 min |
| COc1ccccc1Oc1c(NS(=O)(=O)c2ccc(C(C)(C)C)cc2)nc(-c2ncccn2)nc1OCCO [Bosentan] | 9.96 min |
| Cc1c(NC=O)c(=O)n(-c2ccccc2)n1C [Antipyrine- 4-Formylamino] | 3.96 min |
| O=C(Oc1cccc2cccnc12)c1cn(CC2CCCCC2)c2ccccc12 [BB-22] | 12.4 min |
| CCCOc1ccc(S(=O)(=O)NCCC2CCCN2C)cc1-c1nc2c(CCC)nn(C)c2c(=O)[nH]1 (centres undefined) [Udenafil] | 7.83 min |
| COC(=O)C1=COC(C)C2CN3CCc4c([nH]c5ccccc45)C3CC12 (centres undefined) [Raubasine] | 6.66 min |

| SMILES | LC retention time |
| --- | --- |
| CCC[N+]12C(O)C(CC)C3CC1C1N(C)c4ccccc4C14CC2C3C4O (centres undefined) [Prajmaline] | 6.07 min |
| Nc1c(Br)cc(Br)cc1CNC1CCC(O)CC1 (centres undefined) [Ambroxol] | 6.04 min |
| Cc1cccc(C)c1N(Cn1cccn1)C(=O)CS(C)=O (centres undefined) [Metazachlor BH 479-11] | 5.54 min |
| CCOc1cc(C(C)(C)C)ccc1C1COC(c2c(F)cccc2F)=N1 (centres undefined) [Etoxazole] | 12.8 min |
| CN(C)Cc1nnc2n1-c1ccc(Cl)cc1C(c1ccccc1)=NC2 [Adinazolam] | 8.28 min |
| COc1ccc2c3c1OC1C(=O)CCC4C(C2)N(C)CCC314 (centres undefined) [Hydrocodone] | 3.69 min |
| COP(=S)(OC)Oc1ccc([N+](=O)[O-])cc1Cl [Dicapthon] | 10.5 min |
| CNC(=O)Oc1cccc2ccccc12 [Carbaryl] | 7.46 min |
| CCN(CC)CCOC(=O)c1ccc(N)cc1 [Procaine] | 3.21 min |
| Cc1ccc2n[nH]nc2c1 [Benzotriazole- 5-Me] | 5.83 min |
| COP(=O)(OC)Oc1ccc([N+](=O)[O-])cc1 [Paraoxon-methyl] | 6.36 min |
| C=CC1(C)CC(OC(=O)CSCCN(CC)CC)C2(C)C(C)CCC3(CCC(=O)C32)C(C)C1O (centres undefined) [Tiamulin] | 7.71 min |
| CC(C)OC(=O)Nc1ccccc1 [Propham] | 8.11 min |
| CCCCCn1nc(C(=O)Oc2cccc3ccccc23)c2ccccc21 [SDB-005] | 13.1 min |
| CN(C)S(=O)(=O)N(SC(F)(Cl)Cl)c1ccccc1 [Dichlofluanid] | 10 min |
| c1cnc2cc3c(cc2n1)C1CNCC3C1 [Varenicline] | 3.63 min |
| CCc1cc2c(s1)N(C)C(=O)CN=C2c1ccccc1Cl [Clotiazepam] | 10.2 min |
| COc1cc(NS(=O)(=O)c2ccc(N)cc2)ncn1 [Sulfamonomethoxine] | 4.75 min |
| COP(=S)(OC)Oc1ccc([N+](=O)[O-])c(C)c1 [Fenitrothion] | 9.92 min |
| CCCC(C(=O)c1ccc2ccccc2c1)N1CCCC1 (centres undefined) [Naphyrone] | 7.33 min |
